The record followed here is patent US20250197865A1, “PHARMACEUTICAL COMPOSITION FOR TREATMENT OR PREVENTION OF FIBROTIC DISEASE” (KYUSHU UNIVERSITY, NATIONAL UNIVERSITY CORPORATION, priority 2022, published 2025).

For one data set, the system named is SMAD3 mRNA. In words: si Smad3 transfection of myofibroblasts from carbon tetrachloride-induced fibrotic liver, SMAD3 mRNA. In kind it is cell-based, mouse. Particulars: myofibroblasts from CCl4 liver fibrosis model; versus si Ctrl; FIG. 26c. The protocol:
The mRNA expression levels of P4HA3 etc. in the examples of the present specification were quantified as follows. The concentration of purified RNA was determined using a microspectrophotometer DS-11 (DeNovix), and reverse transcription to cDNA was performed using a High Capacity cDNA Reverse Transcription Kit (Applied Biosystems). Quantification of mRNA was performed according to the protocol of Luna Universal qPCR Master Mix (New England BioLabs), with DNA polymerase activation at 95° C. for 60 seconds, followed by 45 cycles of cDNA denaturation at 95° C. for 15 seconds and extension at 60° C. for 30 seconds. Analysis was performed by the AACt method using GAPDH as an internal standard. Mouse Cyp7al probe was purchased from Applied Biosystems. Primers and probes for mouse α-smooth muscle actin (α-SMA), CD68, 1α1 collagen (Col1α1), 1α2 collagen (Col1α2), 1α3 collagen (Col1α3), 6α1 collagen (Col6α1), 8α1 collagen (Co81α1), GAPDH (glyceraldehyde-3-phosphate dehydrogenase), heat shock protein 47 (Hsp47), prolyl 4-hydroxylase alphal subunit (P4HA1), prolyl 4-hydroxylase alpha2 subunit (P4HA2), and prolyl 4-hydroxylase alpha3 subunit (P4HA3) were purchased from Sigma-Aldrich.
Hepatic stellate cells, which are involved in liver fibrosis, are known to be activated by TGFβ (Fabregat, I. et al., FEBS J., 283:2219-2232 (2016)). […]

Data set [1] concerns mRNA expression of fibrosis-related factors (collagens, elastin) in myofibroblasts. Description: siRNA treatment of myofibroblasts from carbon tetrachloride-induced fibrotic liver, fibrosis-related factor mRNA by real-time RT-PCR. The format is cell-based, mouse. Particulars: myofibroblasts from CCl4 liver fibrosis model; si Smad3 versus si Ctrl; P4HA3, Col1α1, Col1α2, Col3α1; FIG. 26c. For orientation: In qPCR the cycle at which signal appears reflects the starting amount.

Turning to “si Smad3: siRNA for mouse SMAD3, SEQ ID NOs: 14 and 15; ThermoFisher Scientific catalog 4390771, Assay ID s69495 (chain 1 GGAATTTGCTGCCCTCCTATT; chain 2 TAGGAGGGCAGCAAATTCCCT; listed as DNA, chemistry not given here)”, the “mRNA expression of SMAD3” value in the data set on SMAD3 mRNA is “inhibits”. In data set [1], the “mRNA expression of fibrosis-related factors including P4HA3” value is “suppressed”.
